From patent US20230200393A1, “SELECTIVE HERBICIDES BASED ON SUBSTITUTED ISOXAZOLIN CARBOXAMIDES AND METCAMIFEN” (Bayer Aktiengesellschaft, priority 2020, published 2023)

How the values were obtained:
ZEAMA Sileno [1] = assay: Safener seed treatment, pre-emergence herbicide crop damage; type: in vivo, maize; conditions: for HER effect: no safener
Description: (§1) For the safener seed treatment, sufficient seeds of the respective crops (spring wheat, TRZAS; spring barley, HORVS; maize, ZEAMA) were weighed into screw top glass bottles approximately twice the volume of the seeds.
(§2) The specified safeners, formulated as wettable powder (WP) were weighed out so that the specified rates (g a.i./kg seed) would be obtained, dissolved in water (1 ml water per 10 g of seeds), and added to the seeds to produce a slurry.
(§3) The bottles were capped and then placed in an overhead shaker (set at medium speed for ca. 60 minutes) so that the seeds were evenly coated with the slurry. The bottles were uncapped and the seeds were either placed on paper and dried for an interval of 3-4 hours prior to sowing, or directly sown. Seeds were placed in sandy loam soil in pots of a diameter of 7-8 cm, and covered with soil.
(§4) Pre-emergence application of the specified herbicides was done subsequently, on two sets of plants:
(§5) a) seed treatment with safener, as described above
(§6) The herbicides were formulated as WP and was sprayed onto the soil surface as an aqueous suspension at an equivalent water application rate of 300 l/ha.
(§7) After application, the test plants were kept in the greenhouse under good growth conditions. At intervals up to 4 weeks after application (=28 days after treatment; DAT), % crop damage observed on the treated plants was scored visually in comparison to control plants that had not received any safener or herbicide treatment.
(§8) Values in the table below are mean values of at least 2 replicates.

TRZAS Triso [2] = assay: as above; type: in vivo, spring wheat; conditions: 21 (Final) DAT; for HER effect: no safener
Description: as §1, §2, §3, §4, §5, §6, §7, §8

ZEAMA Sileno [3] = assay: Tank-mix post-emergence crop damage, herbicide with/without safener metcamifen; type: in vivo, maize; conditions: for HER effect + SAF / Reduction [Difference] / Reduction [%]: Final; for HER effect: no safener, Final assessment, post-emergence
Description: (§9) Seeds of crops (spring wheat, TRZAS; spring barley, HORVS; maize, ZEAMA) were placed in sandy loam soil in peat pots, covered with soil and cultivated in a greenhouse under good growth conditions. Two to three weeks after sowing, the test plants were treated at the 1 to 3-leaf stage. The herbicide/safener active compound combinations according to the invention, formulated as wettable powders or emulsion concentrates, and, in parallel tests, the correspondingly formulated individual active compounds were sprayed onto the green parts of the plants in various dosages using an amount of water of 300 l/ha (converted).
(§10) The pots were returned under good growing conditions in a glasshouse and a visual assessment of herbicidal effects was made at intervals from 1 to 3 weeks after herbicide application (DAT=days after treatment). Assessment was on a percentage basis in comparison with untreated control plants (0%=no injury, 100%=complete kill).

TRZAS Triso [4] = assay: as above; type: in vivo, spring wheat; conditions: 21 DAT
Description: as §9, §10

[5] = HER 40 g a.i./ha + metcamifen seed treatment 0.25 g a.i./kg seed, 14 DAT
[6] = HER 40 g a.i./ha + metcamifen seed treatment 0.25 g a.i./kg seed, 26 DAT
[7] = HER 80 g a.i./ha + metcamifen seed treatment 0.25 g a.i./kg seed, 14 DAT
[8] = HER 5 g a.i./ha + metcamifen seed treatment 0.25 g a.i./kg seed
[9] = HER 8 g a.i./ha + metcamifen 100 g a.i./ha
[10] = HER 32 g a.i./ha + metcamifen 50 g a.i./ha
[11] = HER 15 g a.i./ha + metcamifen seed treatment 0.25 g a.i./kg seed
[12] = HER 40 g a.i./ha pre-emergence, 14 DAT
[13] = HER 80 g a.i./ha + metcamifen seed treatment 0.25 g a.i./kg seed, 26 DAT
[14] = HER 0.5 g a.i./ha + metcamifen 50 g a.i./ha
[15] = HER 2 g a.i./ha + metcamifen 50 g a.i./ha
[16] = HER 8 g a.i./ha + metcamifen 50 g a.i./ha
[17] = HER 32 g a.i./ha + metcamifen 100 g a.i./ha

SMILES: C=CC1(C(=O)NC2COC(C(=O)OC)C2)CC(c2cc(F)cc(F)c2)=NO1 (mixture of isomers) [Example 1.68]
- HER effect + SAF (ZEAMA Sileno [1]; [5]): 30%
- Reduction [%] (ZEAMA Sileno [1]; [5]): 68%
- Reduction [Difference] (ZEAMA Sileno [1]; [5]): 63
- Reduction [%] (ZEAMA Sileno [1]; [6]): 74%
- Reduction [Difference] (ZEAMA Sileno [1]; [6]): 70
- HER effect (ZEAMA Sileno [1]; HER 40 g a.i./ha pre-emergence, 26 DAT): 95%
- HER effect + SAF (ZEAMA Sileno [1]; [7]): 75%
- Reduction [%] (ZEAMA Sileno [1]; [7]): 23%
- Reduction [Difference] (ZEAMA Sileno [1]; [7]): 22
- HER effect (ZEAMA Sileno [1]; HER 80 g a.i./ha pre-emergence, 14 DAT): 97%
- HER effect + SAF (TRZAS Triso [2]; [8]): 10%
- Reduction [%] (TRZAS Triso [2]; [8]): 78%
- HER effect + SAF (ZEAMA Sileno [3]; [9]): 48%
- Reduction [Difference] (ZEAMA Sileno [3]; [9]): 48
- HER effect (ZEAMA Sileno [3]; HER 8 g a.i./ha): 96%
- HER effect + SAF (ZEAMA Sileno [3]; [10]): 67%
- Reduction [%] (ZEAMA Sileno [3]; [10]): 32%
- Reduction [Difference] (ZEAMA Sileno [3]; [10]): 31
- HER effect (ZEAMA Sileno [3]; HER 32 g a.i./ha): 98%

SMILES: COC(=O)C1COCC1NC(=O)C1(C)CC(c2cc(F)cc(F)c2)=NO1 (mixture of isomers) [Example 1.93]
- HER effect + SAF (TRZAS Triso [2]; [8]): 5%
- Reduction [%] (TRZAS Triso [2]; [8]): 86%
- Reduction [Difference] (TRZAS Triso [2]; [8]): 30
- HER effect (TRZAS Triso [2]; HER 5 g a.i./ha pre-emergence): 35%
- HER effect + SAF (TRZAS Triso [2]; [11]): 10%
- Reduction [%] (TRZAS Triso [2]; [11]): 85%
- Reduction [Difference] (TRZAS Triso [2]; [11]): 55
- HER effect (TRZAS Triso [2]; HER 15 g a.i./ha pre-emergence): 65%

SMILES: COCCOC(=O)C1C=CC(NC(=O)C2(C(F)(F)F)CC(c3cc(F)cc(C#N)c3)=NO2)C1 (stereo not drawn) [Example 1.2]
- HER effect + SAF (ZEAMA Sileno [1]; [5]): 20%
- Reduction [%] (ZEAMA Sileno [1]; [5]): 50%
- Reduction [Difference] (ZEAMA Sileno [1]; [5]): 20
- HER effect (ZEAMA Sileno [1]; [12]): 40%

SMILES: COCCOC(=O)C1C=CC(NC(=O)C2(C)CC(c3cc(Cl)cc(C#N)c3)=NO2)C1 (stereo not drawn) [Example 1.5]
- HER effect + SAF (ZEAMA Sileno [1]; [7]): 35%
- Reduction [%] (ZEAMA Sileno [1]; [7]): 42%
- HER effect + SAF (ZEAMA Sileno [1]; [13]): 25%
- Reduction [%] (ZEAMA Sileno [1]; [13]): 44%

SMILES: CSCCOC(=O)C1C=CC(NC(=O)C2(C(F)(F)F)CC(c3cc(F)cc(F)c3)=NO2)C1 (stereo not drawn) [Example 1.7]
- HER effect + SAF (ZEAMA Sileno [1]; [5]): 55%
- Reduction [%] (ZEAMA Sileno [1]; [5]): 34%
- Reduction [Difference] (ZEAMA Sileno [1]; [5]): 28
- Reduction [%] (ZEAMA Sileno [1]; [6]): 44%
- Reduction [Difference] (ZEAMA Sileno [1]; [6]): 20
- HER effect (ZEAMA Sileno [1]; [12]): 83%

SMILES: C=CC1(C(=O)NC2C=CC(C(=O)OC)C2)CC(c2cc(F)cc(F)c2)=NO1 (stereo not drawn) [Example 1.26]
- HER effect (ZEAMA Sileno [1]; [12]): 25%
- Reduction [%] (ZEAMA Sileno [1]; [7]): 86%
- Reduction [%] (ZEAMA Sileno [1]; [13]): 86%
- HER effect + SAF (TRZAS Triso [4]; [14]): 20%
- Reduction [%] (TRZAS Triso [4]; [14]): 50%
- HER effect + SAF (TRZAS Triso [4]; [15]): 80%
- Reduction [%] (TRZAS Triso [4]; [15]): 11%
- Reduction [Difference] (TRZAS Triso [4]; [15]): 10
- HER effect (TRZAS Triso [4]; HER 2 g a.i./ha, no safener): 90%
- HER effect + SAF (ZEAMA Sileno [3]; [16]): 22%
- Reduction [%] (ZEAMA Sileno [3]; [16]): 61%
- Reduction [Difference] (ZEAMA Sileno [3]; [16]): 35
- HER effect (ZEAMA Sileno [3]; HER 8 g a.i./ha): 57%
- HER effect + SAF (ZEAMA Sileno [3]; [17]): 35%
- Reduction [%] (ZEAMA Sileno [3]; [17]): 63%
- Reduction [Difference] (ZEAMA Sileno [3]; [17]): 59
- HER effect (ZEAMA Sileno [3]; HER 32 g a.i./ha): 94%

SMILES: C=CC1(C(=O)NC2COC(C(=O)OC)C2)CC(c2cc(F)cc(F)c2)=NO1 (stereo not drawn) [Example 1.69]
- HER effect + SAF (ZEAMA Sileno [1]; [5]): 20%
- Reduction [%] (ZEAMA Sileno [1]; [5]): 79%
- Reduction [Difference] (ZEAMA Sileno [1]; [5]): 75
- Reduction [%] (ZEAMA Sileno [1]; [6]): 67%
- Reduction [Difference] (ZEAMA Sileno [1]; [6]): 60

SMILES: C=CC1(C(=O)NC2COC(C(=O)OC)C2)CC(c2cc(F)cc(F)c2)=NO1 (stereo not drawn) [Example 1.70]
- HER effect + SAF (ZEAMA Sileno [1]; [5]): 20%
- Reduction [%] (ZEAMA Sileno [1]; [5]): 75%
- Reduction [Difference] (ZEAMA Sileno [1]; [5]): 60
- HER effect + SAF (ZEAMA Sileno [1]; [6]): 5%
- Reduction [%] (ZEAMA Sileno [1]; [6]): 94%
- Reduction [Difference] (ZEAMA Sileno [1]; [6]): 80
- Reduction [%] (ZEAMA Sileno [1]; [7]): 63%
- Reduction [Difference] (ZEAMA Sileno [1]; [7]): 60
- HER effect + SAF (ZEAMA Sileno [1]; [13]): 25%
- Reduction [%] (ZEAMA Sileno [1]; [13]): 74%
- Reduction [Difference] (ZEAMA Sileno [1]; [13]): 70

SMILES: C=CC1(C(=O)NC2C=C(C(=O)OC)OC2)CC(c2cc(C)cc(C)c2)=NO1 (stereo not drawn) [Example 1.90]
- Reduction [%] (ZEAMA Sileno [1]; [13]): 83%
- Reduction [Difference] (ZEAMA Sileno [1]; [13]): 25
- HER effect (ZEAMA Sileno [1]; HER 80 g a.i./ha pre-emergence, 26 DAT): 30%

SMILES: COC(=O)C1OCCC1NC(=O)C1(C)CC(c2cc(F)cc(F)c2)=NO1 (stereo not drawn) [Example 1.92]
- Reduction [%] (ZEAMA Sileno [1]; [5]): 87%
- Reduction [Difference] (ZEAMA Sileno [1]; [5]): 65
- HER effect + SAF (ZEAMA Sileno [1]; [6]): 0%
- Reduction [%] (ZEAMA Sileno [1]; [6]): 100%
